The source of these data is patent EP2068152A1, “c-Kit as a novel target for the treatment of pain” (Max-Delbrück-Centrum für Molekulare Medizin (MDC), priority 2007, dated 2009).

The subject of one assay is Aβ mechanoreceptors. The conditions noted are these: animals treated as adults with imatinib.
A further assay has as its system c-Kit. Description: Paw withdrawal test (radiant heat). It counts as in vivo, mice.
The next assay concerns C-fiber nociceptors. Description: In vitro skin nerve preparation: noxious heat response of CMH fibers from treated mice. The format is in vivo.

Experimental for C-fiber nociceptors: The conduction velocity cut-off between Aβ and Aδ fibers was determined to be 9 m/s in c-Kit mutants based on measurements of the Aβ and Aδ wave in compound action potential recordings as previously described (Koltzenburg et al., 1997).
Experimental for c-Kit: Paw withdrawal test. In the radiant paw-withdrawal test the mice were placed in a Plexiglas chamber (15 cm diameter, 22.5 cm in height). The stimulus was a high intensity beam directed at the plantar surface of the hindpaw; movement of the paw away from the beam results in the heat source being terminated, with the withdrawal latency indicated on a digital screen (Ugo Basile, Milan, Italy). Paw withdrawal latencies were determined alternately from both hindpaws (stimuli given every 30- 40 s). Criteria for inclusion of a data point were calm behavior of the mouse just prior to testing, and a clear paw withdrawal from the hot beam associated with paw flicking and grooming. Baseline values were taken once a day at the same time for a period of 3 days. c-Kit ligand (Stem Cell Factor, SCF, R&D Systems) was injected once intraperitoneally (1 mg/kg i.p.) into TRPV1 -l- and control C57B1/6 mice (adult females, 6- 8 weeks, 20-25 g body weight), and response latencies to radiant heating of the hind paw was measured at various times after injection as described.
The inventors therefore used the mast cell degranulating agent 48/80 to deplete resident mast cells of neuroactive substances prior to the administration of SCF.

Turning to `Cc1ccc(NC(=O)c2ccc(CN3CCN(C)CC3)cc2)cc1Nc1nccc(-c2cccnc2)n1` [imatinib, 4-[(4-Methyl-1-piperazinyl)methyl]-N-[4-methyl-3-[[4-(3-pyridinyl)-2-pyrimidinyl]amino]-phenyl]benzamide], in the assay on Aβ mechanoreceptors, the “proportion of RAM and SAM receptors” value was “no change in proportion of RAM and SAM receptors”. Moreover, in the assay on c-Kit (5 days after daily imatinib treatment, 0.1 mg/g sub-cutaneously, n=6, vehicle treated mice 129 ±35%), the “foot withdrawal latency to noxious heat” value is recorded as 160 ±39 % of starting values. The “thermal hyperalgesia after SCF in pre-treated mice” value in the assay with c-Kit (two subcutaneous injections (0.1 mg/g) 18 hrs and 1 hr before SCF (1 µg/g, i.p.)) is “did not display any significant thermal hyperalgesia”. For the same compound, the C-fiber heat sensitivity result in the assay with C-fiber nociceptors (imatinib 0.1 mg/g sub-cutaneously for 6-7 days) was “reduction in C-fiber heat sensitivity that was almost identical to that found in c-Kit^-/- and c-Kit^+/- mice”. Further, in the assay with C-fiber nociceptors (imatinib treated adult mice, heat ramp 32°C to 60°C, Two way ANOVA F=7.67 p<0.01), the “number of spikes per 1 second time window during the heat ramp (CMH fibers), curve versus control” value is given as “significantly different from control”. For the same compound, the “fibers with responses >60 spikes/stimulus (high responders)” value in the assay on C-fiber nociceptors (imatinib treated mice, figure stated together with c-kit mutant mice, control C-fibers 47%) is reported as about 16%.
